Here are results for 42 compounds from ChEMBL document CHEMBL1154514, “Synthesis and biological evaluation of N-mercaptoacylcysteine derivatives as leukotriene A4 hydrolase inhibitors” (Bioorg Med Chem Lett, 2009).

In experiment [1] the target is Angiotensin-converting enzyme (Homo sapiens, UniProt P12821). Briefly: Inhibition of angiotensin-converting enzyme in whole blood by HPLC. It is filed as tissue-based.
Experiment [2] has as its target T1, Leukotriene A-4 hydrolase (Cavia porcellus, UniProt P19602).
T1 sequence (P19602 whole entry): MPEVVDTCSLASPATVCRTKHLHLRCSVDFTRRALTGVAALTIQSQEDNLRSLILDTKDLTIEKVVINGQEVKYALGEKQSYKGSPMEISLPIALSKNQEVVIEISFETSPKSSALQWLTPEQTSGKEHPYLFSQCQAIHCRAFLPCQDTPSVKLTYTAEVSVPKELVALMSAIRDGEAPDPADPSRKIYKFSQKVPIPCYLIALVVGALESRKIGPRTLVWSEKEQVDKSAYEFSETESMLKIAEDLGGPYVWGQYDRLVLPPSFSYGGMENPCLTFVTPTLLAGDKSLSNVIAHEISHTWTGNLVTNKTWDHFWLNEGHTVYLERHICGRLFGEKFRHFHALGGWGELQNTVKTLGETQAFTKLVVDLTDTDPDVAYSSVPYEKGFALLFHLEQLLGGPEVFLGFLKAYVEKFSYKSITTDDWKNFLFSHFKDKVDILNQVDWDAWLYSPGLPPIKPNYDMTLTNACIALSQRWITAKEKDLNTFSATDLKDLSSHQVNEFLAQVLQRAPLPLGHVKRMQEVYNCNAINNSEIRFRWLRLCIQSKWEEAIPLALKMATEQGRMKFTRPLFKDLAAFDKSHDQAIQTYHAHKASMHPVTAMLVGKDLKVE
In words: Inhibition of LTA4 hydrolase in guinea pig lung assessed as inhibition of LTB4 production. The conditions noted are these: for IC50: read-out: pIC50 (converted); for pIC50: read-out: IC50.

In experiment [3] the target is T2, Endothelin-converting enzyme 1 (Homo sapiens) (UniProt P42892).
T2 sequence (whole entry): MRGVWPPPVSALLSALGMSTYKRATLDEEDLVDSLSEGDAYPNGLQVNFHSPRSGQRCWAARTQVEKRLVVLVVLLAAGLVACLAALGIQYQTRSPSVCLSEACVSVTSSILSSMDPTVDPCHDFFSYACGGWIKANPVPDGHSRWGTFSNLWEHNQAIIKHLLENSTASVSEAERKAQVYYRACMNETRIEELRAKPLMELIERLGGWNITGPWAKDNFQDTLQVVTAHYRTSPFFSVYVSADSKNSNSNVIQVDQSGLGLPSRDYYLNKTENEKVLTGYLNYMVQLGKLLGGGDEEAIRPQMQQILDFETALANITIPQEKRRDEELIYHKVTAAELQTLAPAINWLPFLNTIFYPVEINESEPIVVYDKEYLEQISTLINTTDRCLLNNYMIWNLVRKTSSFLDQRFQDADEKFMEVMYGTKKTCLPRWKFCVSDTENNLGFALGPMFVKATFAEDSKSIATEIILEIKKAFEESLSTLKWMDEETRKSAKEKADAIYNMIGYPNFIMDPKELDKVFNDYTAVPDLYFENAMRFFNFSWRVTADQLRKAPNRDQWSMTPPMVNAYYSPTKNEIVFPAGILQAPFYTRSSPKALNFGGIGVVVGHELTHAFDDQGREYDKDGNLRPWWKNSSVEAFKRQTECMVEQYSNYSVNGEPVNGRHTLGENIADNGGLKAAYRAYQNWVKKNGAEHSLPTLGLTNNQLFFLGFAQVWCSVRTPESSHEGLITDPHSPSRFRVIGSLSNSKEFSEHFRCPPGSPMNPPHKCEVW
Briefly: Inhibition of endothelin-converting enzyme 1 at 100 uM.

The next experiment has as its target Collagenase 3 (Homo sapiens, UniProt P45452). Briefly: Inhibition of type 3 collagenase.
Experiment [4] addresses Neprilysin (Homo sapiens) (UniProt P08473). In words: Inhibition of endopeptidase 24.11 at 100 uM.
In experiment [5] the target is T3, Interstitial collagenase (Homo sapiens) (UniProt P03956).
T3 sequence (whole entry): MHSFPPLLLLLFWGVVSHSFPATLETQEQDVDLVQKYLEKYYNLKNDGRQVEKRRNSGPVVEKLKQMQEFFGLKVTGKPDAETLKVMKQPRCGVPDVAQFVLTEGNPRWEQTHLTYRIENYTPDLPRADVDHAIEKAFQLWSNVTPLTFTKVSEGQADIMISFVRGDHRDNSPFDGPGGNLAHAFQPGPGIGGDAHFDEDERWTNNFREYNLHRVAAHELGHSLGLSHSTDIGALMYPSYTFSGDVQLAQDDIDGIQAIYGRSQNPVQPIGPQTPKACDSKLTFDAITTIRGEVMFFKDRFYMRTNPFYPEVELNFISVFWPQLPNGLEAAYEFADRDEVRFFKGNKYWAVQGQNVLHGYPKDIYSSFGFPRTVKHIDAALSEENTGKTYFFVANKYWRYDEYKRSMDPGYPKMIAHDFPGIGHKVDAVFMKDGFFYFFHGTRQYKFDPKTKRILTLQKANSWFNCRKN
In words: Inhibition of type 1 collagenase at 100 uM.

The target in experiment [6] is Aminopeptidase N (Homo sapiens) (UniProt P15144). In words: Inhibition of aminopeptidase M at 100 uM.

A word on the pIC50: it is the negative decadic logarithm of the IC50, by convention in mol/L. A word on the inhibition: it is the relative decrease from the control value, in per cent.

pIC50: −log10 of the molar value.

Angiotensin-converting enzyme, sequence (P12821 whole entry): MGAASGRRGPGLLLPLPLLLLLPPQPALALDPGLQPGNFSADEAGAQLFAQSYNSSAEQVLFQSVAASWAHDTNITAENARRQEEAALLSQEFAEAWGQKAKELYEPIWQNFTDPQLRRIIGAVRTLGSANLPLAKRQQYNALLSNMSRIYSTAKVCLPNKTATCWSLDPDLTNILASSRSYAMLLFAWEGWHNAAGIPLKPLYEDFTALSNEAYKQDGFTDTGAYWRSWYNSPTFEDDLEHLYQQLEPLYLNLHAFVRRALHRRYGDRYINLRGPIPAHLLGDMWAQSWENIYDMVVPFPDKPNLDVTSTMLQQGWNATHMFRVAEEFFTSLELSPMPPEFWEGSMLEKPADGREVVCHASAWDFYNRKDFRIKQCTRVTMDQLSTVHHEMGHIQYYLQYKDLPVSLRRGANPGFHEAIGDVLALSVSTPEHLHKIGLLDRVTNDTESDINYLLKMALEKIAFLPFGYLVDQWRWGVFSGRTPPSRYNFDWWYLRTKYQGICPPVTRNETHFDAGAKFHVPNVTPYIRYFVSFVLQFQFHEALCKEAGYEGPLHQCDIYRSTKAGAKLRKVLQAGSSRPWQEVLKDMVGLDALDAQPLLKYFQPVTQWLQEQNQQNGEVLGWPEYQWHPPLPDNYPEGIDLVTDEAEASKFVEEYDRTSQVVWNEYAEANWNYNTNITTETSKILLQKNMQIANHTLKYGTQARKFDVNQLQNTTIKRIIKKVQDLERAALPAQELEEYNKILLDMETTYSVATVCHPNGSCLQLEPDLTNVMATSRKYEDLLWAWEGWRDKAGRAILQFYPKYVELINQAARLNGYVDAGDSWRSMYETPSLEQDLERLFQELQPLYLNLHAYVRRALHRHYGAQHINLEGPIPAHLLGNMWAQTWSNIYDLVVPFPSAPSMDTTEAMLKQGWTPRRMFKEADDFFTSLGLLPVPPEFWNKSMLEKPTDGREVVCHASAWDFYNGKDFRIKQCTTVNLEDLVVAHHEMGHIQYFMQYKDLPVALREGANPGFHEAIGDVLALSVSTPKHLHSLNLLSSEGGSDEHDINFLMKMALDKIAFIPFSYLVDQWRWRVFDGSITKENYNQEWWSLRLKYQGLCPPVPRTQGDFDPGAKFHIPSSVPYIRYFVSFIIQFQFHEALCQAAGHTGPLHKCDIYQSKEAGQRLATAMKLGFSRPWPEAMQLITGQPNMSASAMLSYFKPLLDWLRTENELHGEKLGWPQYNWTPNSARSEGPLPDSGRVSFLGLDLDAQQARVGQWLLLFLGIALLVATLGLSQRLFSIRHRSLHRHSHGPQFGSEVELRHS
Aminopeptidase N (Homo sapiens), sequence (P15144 whole entry): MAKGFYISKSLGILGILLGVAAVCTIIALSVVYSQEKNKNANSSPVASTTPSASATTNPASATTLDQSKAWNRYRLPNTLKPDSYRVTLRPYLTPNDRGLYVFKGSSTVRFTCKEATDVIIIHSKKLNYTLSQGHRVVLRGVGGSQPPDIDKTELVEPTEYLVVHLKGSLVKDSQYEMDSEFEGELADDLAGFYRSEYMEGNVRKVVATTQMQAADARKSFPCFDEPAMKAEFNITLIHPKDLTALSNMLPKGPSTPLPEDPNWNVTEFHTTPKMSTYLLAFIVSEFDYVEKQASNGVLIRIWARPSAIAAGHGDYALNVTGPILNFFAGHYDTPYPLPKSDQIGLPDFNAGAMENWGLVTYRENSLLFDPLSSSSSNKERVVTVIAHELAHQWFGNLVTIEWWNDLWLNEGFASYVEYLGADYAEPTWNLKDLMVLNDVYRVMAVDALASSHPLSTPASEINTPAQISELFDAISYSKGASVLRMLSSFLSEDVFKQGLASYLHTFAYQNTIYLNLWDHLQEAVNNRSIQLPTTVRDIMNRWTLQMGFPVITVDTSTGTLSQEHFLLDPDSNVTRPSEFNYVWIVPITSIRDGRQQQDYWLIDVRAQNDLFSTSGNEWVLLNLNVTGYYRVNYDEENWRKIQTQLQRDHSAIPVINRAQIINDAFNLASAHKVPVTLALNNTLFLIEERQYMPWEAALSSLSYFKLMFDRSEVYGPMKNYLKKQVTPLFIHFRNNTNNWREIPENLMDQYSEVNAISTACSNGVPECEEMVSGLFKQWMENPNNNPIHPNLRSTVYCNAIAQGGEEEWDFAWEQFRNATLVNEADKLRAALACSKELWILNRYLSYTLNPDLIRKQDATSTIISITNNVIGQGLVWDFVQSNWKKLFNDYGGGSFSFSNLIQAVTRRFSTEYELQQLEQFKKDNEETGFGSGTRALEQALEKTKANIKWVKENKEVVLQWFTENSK
Neprilysin (Homo sapiens), sequence (P08473 whole entry): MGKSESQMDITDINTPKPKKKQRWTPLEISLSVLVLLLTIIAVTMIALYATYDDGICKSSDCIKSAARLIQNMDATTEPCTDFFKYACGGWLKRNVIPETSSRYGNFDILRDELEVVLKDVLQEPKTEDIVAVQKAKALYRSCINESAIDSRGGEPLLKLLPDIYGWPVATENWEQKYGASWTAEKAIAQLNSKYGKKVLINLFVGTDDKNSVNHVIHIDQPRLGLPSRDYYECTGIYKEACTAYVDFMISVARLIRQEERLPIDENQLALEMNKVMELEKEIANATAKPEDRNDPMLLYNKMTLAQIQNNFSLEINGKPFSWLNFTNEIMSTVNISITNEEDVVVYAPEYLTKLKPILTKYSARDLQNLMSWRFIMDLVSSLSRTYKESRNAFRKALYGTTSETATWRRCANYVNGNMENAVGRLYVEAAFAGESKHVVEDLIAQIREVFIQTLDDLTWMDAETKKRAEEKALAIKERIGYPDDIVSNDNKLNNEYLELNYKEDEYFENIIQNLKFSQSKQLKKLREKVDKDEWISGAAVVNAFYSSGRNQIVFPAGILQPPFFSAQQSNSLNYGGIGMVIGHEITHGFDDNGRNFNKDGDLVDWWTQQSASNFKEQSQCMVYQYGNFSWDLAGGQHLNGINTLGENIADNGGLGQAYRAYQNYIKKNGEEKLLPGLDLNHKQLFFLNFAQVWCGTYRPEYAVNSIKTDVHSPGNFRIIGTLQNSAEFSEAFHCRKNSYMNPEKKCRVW

Consider `C[C@H](CS)C(=O)N[C@@H](CSCc1ccc(C(C)(C)C)cc1)C(=O)O`, for which, in experiment [1], the pIC50 is 6.89. The IC50 in experiment [2] was 24 nM.

For `C[C@@H](S)C(=O)N[C@@H](CSCc1ccc(N(C)C)cc1)C(=O)O`, the pIC50 in experiment [2] was under 5.00.

For `CC(S)CC(=O)N[C@@H](CSCc1ccc(N(C)C)cc1)C(=O)O` (stereo partly drawn), the pIC50 in experiment [2] was 5.13.

`COc1ccc(CSC[C@H](NC(=O)[C@H](C)CS)C(=O)O)cc1` showed a pIC50 in experiment [1] of 7.00. In experiment [2], the negative logarithm of the IC50 (pIC50) is 5.62 and the IC50 is 2400 nM.

Consider `CC(C)c1ccc(C(SC[C@H](NC(=O)[C@H](C)CS)C(=O)O)C(C)C)cc1` (stereo partly drawn), for which the negative-log IC50 (pIC50) in experiment [1] is 6.37; in experiment [2], 6.28.

On to `C[C@H](CS)C(=O)N[C@@H](CSCc1ccc(Br)cc1)C(=O)O`, for which the negative-log IC50 (pIC50) was 6.55 in experiment [1] and 6.21 in experiment [2]. Besides, in experiment [2], the IC50 was 610 nM.

Regarding `C[C@H](CS)C(=O)N[C@@H](CSC(C)(C)c1ccc(C2CCCCC2)cc1)C(=O)O`, in experiment [1], the pIC50 is 5.52.

For the compound `C[C@H](CS)C(=O)N[C@@H](CCSCc1ccc(N(C)C)cc1)C(=O)O`, the pIC50 in experiment [2] is under 5.00.

Regarding `C[C@H](CS)C(=O)N[C@@H](CSCc1cccc(N(C)C)c1)C(=O)O`, the negative logarithm of the IC50 (pIC50) in experiment [2] was under 5.00.

Regarding `C[C@H](CS)C(=O)N[C@@H](CSCc1ccc(N(C)C)cc1)C(=O)O`, the pIC50 was 6.28 in experiment [1] and 6.57 in experiment [2]. Moreover, the inhibition in experiment [3] was 8%; in experiment [4], 16%; in experiment [5], 3%; in experiment [6], 42%. Moreover, the IC50 entry on Collagenase 3 was “Not Active”; in experiment [2], 270 nM.

`CN(C)c1ccc(CSC[C@H](NC(=O)CCCS)C(=O)O)cc1`: the negative logarithm of the IC50 (pIC50) in experiment [2] is under 5.00.

For the compound `C[C@H](CS)C(=O)N[C@@H](CSCc1ccc(F)cc1)C(=O)O`, the pIC50 in experiment [1] was 7.00. Besides, in experiment [2], the pIC50 is under 5.00 and the IC50 is over 10000 nM.

`C[C@H](CS)C(=O)N[C@@H](CSCc1ccc([N+](=O)[O-])cc1)C(=O)O`: the figures for the pIC50 in experiment [1] and in experiment [2] were 6.49 and 5.31, respectively.

Turning to `CCN(CC)c1ccc(CSC[C@H](NC(=O)[C@H](C)CS)C(=O)O)cc1`, the negative logarithm of the IC50 (pIC50) in experiment [1] is 5.34.

As to `Cc1ccc(CSC[C@H](NC(=O)[C@H](C)CS)C(=O)O)cc1`, the pIC50 in experiment [1] was 6.62; in experiment [2], 5.14. Further, the IC50 in experiment [2] is 7200 nM.

The compound `C[C@H](CS)C(=O)N[C@@H](CSCc1ccc(I)cc1)C(=O)O` showed a pIC50 in experiment [1] of 6.85. In addition, the IC50 in experiment [2] was 15 nM.

On to `CCCCC(SC[C@H](NC(=O)[C@H](C)CS)C(=O)O)c1ccc(C(C)C)cc1` (stereo partly drawn), for which the results for the negative-log IC50 (pIC50) in experiment [1] and in experiment [2] were 5.44 and 6.29, respectively.

For the compound `C[C@H](CS)C(=O)N[C@@H](CSCc1ccc(OC(F)(F)F)cc1)C(=O)O`, the pIC50 in experiment [1] is 6.59; in experiment [2], 6.40.

For `C[C@H](CS)C(=O)N[C@@H](CSCc1ccccc1)C(=O)O`, the figures for the pIC50 in experiment [1] and in experiment [2] were 7.47 and under 5.00, respectively.

As to `CC(C)c1ccc(CSC(C)(C)[C@H](NC(=O)[C@H](C)CS)C(=O)O)cc1`, the negative logarithm of the IC50 (pIC50) in experiment [1] and in experiment [2] was under 5.00 each time.

The compound `CCc1ccc(CSC[C@H](NC(=O)[C@H](C)CS)C(=O)O)cc1` had a negative logarithm of the IC50 (pIC50) in experiment [1] of 7.68. For the same compound, the IC50 in experiment [2] is 280 nM.

Take `CCCC(SC[C@H](NC(=O)[C@H](C)CS)C(=O)O)c1ccc(C(C)C)cc1` (stereo partly drawn): the pIC50 is 6.38 in experiment [1] and 6.74 in experiment [2].

In turn, `CCC(SC[C@H](NC(=O)[C@H](C)CS)C(=O)O)c1ccc(C(C)C)cc1` (stereo partly drawn) gave a pIC50 in experiment [1] of 6.47.

As for `C[C@H](CS)C(=O)N[C@@H](CSCc1ccc(C#N)cc1)C(=O)O`, the pIC50 in experiment [1] is 6.52; in experiment [2], 6.28.

`C[C@H](CS)C(=O)N[C@@H](CSCc1ccc(C(F)(F)F)cc1)C(=O)O` had a pIC50 in experiment [1] of 6.47. Also, the IC50 in experiment [2] was 140 nM.

With `CN(C)c1ccc(CSC[C@H](NC(=O)CCS)C(=O)O)cc1`, the pIC50 in experiment [2] is under 5.00.

In turn, `CCCc1ccc(CSC[C@H](NC(=O)[C@H](C)CS)C(=O)O)cc1` gave a pIC50 in experiment [1] of 6.68. The IC50 in experiment [2] is 72 nM.

In experiment [1], `CSc1ccc(CSC[C@H](NC(=O)[C@H](C)CS)C(=O)O)cc1` gave a pIC50 of 6.52.

In turn, `C[C@H](CS)C(=O)N[C@@H](CSCc1ccc(C2CCCCC2)cc1)C(=O)O` gave a pIC50 in experiment [1] of 5.40. Also, the IC50 in experiment [2] is 79 nM.

As to `CC(C)c1ccc(CSC[C@H](NC(=O)[C@H](C)CS)C(=O)O)cc1`, in experiment [1], the pIC50 is 6.52. Besides, the IC50 in experiment [2] was 200 nM.

On to `CC(C)c1ccc(C(SC[C@H](NC(=O)[C@H](C)CS)C(=O)O)c2ccccc2)cc1` (stereo partly drawn), for which the pIC50 in experiment [1] is 5.77; in experiment [2] it was 7.04.

With `C[C@H](CS)C(=O)N[C@@H](CSCc1ccc(-c2ccccc2)cc1)C(=O)O`, the pIC50 in experiment [1] is 6.55; in experiment [2], 6.22. The IC50 in experiment [2] was 79.4 nM.

`CN(C)c1ccc(CSC[C@H](NC(=O)CS)C(=O)O)cc1`: in experiment [2], the pIC50 was 6.33.

In the case of `C[C@H](CS)C(=O)N[C@@H](CSCc1ccc(Oc2ccccc2)cc1)C(=O)O`, the results for the pIC50 in experiment [1] and in experiment [2] were 6.43 and 5.77, respectively. Also, the IC50 in experiment [2] was 1700 nM.

Consider `C[C@H](CS)C(=O)N[C@H](CSCc1ccc(N(C)C)cc1)C(=O)O`, for which the negative-log IC50 (pIC50) in experiment [2] is under 5.00.

Regarding `CC(C)c1ccc(C(C)(C)SC[C@H](NC(=O)[C@H](C)CS)C(=O)O)cc1`, the values for the pIC50 in experiment [1] and in experiment [2] were 6.59 and 7.10, respectively.

For the compound `CCOc1ccc(CSC[C@H](NC(=O)[C@H](C)CS)C(=O)O)cc1`, the pIC50 in experiment [1] was 6.47. In addition, in experiment [2], the negative-log IC50 (pIC50) was 6.19 and the IC50 is 640 nM.

For the compound `CC(C)c1ccc(C(C)SC[C@H](NC(=O)[C@H](C)CS)C(=O)O)cc1` (stereo partly drawn), the negative logarithm of the IC50 (pIC50) in experiment [1] is 6.70.

For the compound `C[C@H](S)C(=O)N[C@@H](CSCc1ccc(N(C)C)cc1)C(=O)O`, in experiment [2], the negative-log IC50 (pIC50) was under 5.00.

As for `C[C@H](CS)C(=O)N[C@@H](CSC(c1ccccc1)c1ccc(C2CCCCC2)cc1)C(=O)O` (stereo partly drawn), the pIC50 was under 5.00 in experiment [1] and 6.68 in experiment [2].

As for `C[C@H](CS)C(=O)N[C@@H](CSCc1ccc(S(C)(=O)=O)cc1)C(=O)O`, the pIC50 in experiment [1] was 6.52.

Regarding `C[C@H](CS)C(=O)N[C@@H](CSCc1ccc(Cl)cc1)C(=O)O`, the pIC50 was 6.60 in experiment [1] and 5.77 in experiment [2]. In addition, in experiment [2], the IC50 was 1700 nM.
